Measurements: PubChem BioAssay (NCI)
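All cell lines were grown in 96-well plates and treated with compound for 48 hours. TGI denotes the concentration required for complete inhibition of growth.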

Key:
Assay in all cases: NCI tumour cell line growth inhibition, 48 h
[1] = tested on: 786-0 renal
[2] = tested on: SNB-75 CNS
[3] = tested on: SK-OV-3 ovarian
[4] = tested on: HOP-92 NSCLC
[5] = tested on: EKVX NSCLC
[6] = tested on: RXF 393 renal
[7] = tested on: UACC-257 melanoma
[8] = tested on: SF-295 CNS
[9] = tested on: OVCAR-5 ovarian
[10] = tested on: COLO 205 colon
[11] = tested on: SF-268 CNS
[12] = tested on: UO-31 renal
[13] = tested on: KM12 colon
[14] = tested on: NCI-H522 lung
[15] = tested on: TK-10 renal
[16] = tested on: SK-MEL-5 melanoma
[17] = tested on: SR leukemia
[18] = tested on: MDA-MB-435
[19] = tested on: NCI-H23 lung
[20] = tested on: T-47D breast
[21] = tested on: SW-620 colon
[22] = tested on: RPMI-8226 leukemia
[23] = tested on: MALME-3M melanoma
[24] = tested on: SNB-19 CNS
[25] = tested on: NCI/ADR-RES ovarian
[26] = tested on: M14 melanoma
[27] = tested on: OVCAR-3 ovarian
[28] = tested on: UACC-62 melanoma
[29] = tested on: SK-MEL-2 melanoma
[30] = tested on: MDA-MB-231 breast
[31] = tested on: MDA-N
[32] = tested on: HCT-15 colon
[33] = tested on: HCT-116 colon
[34] = tested on: HT29 colon
[35] = tested on: MCF7 breast
[36] = tested on: ACHN renal
[37] = tested on: BT-549 breast
[38] = tested on: HL-60(TB) leukemia
[39] = tested on: SN12C renal
[40] = tested on: HCC-2998 colon
[41] = tested on: PC-3 prostate
[42] = tested on: SK-MEL-28 melanoma
[43] = tested on: HOP-62 NSCLC
[44] = tested on: A498 renal
[45] = tested on: SF-539 CNS
[46] = tested on: A549 NSCLC
[47] = tested on: DU-145 prostate
[48] = tested on: CAKI-1 renal
[49] = tested on: K-562 leukemia
[50] = tested on: NCI-H460 lung
[51] = tested on: U251 CNS
[52] = tested on: LOX IMVI melanoma
[53] = tested on: HS 578T breast
[54] = tested on: OVCAR-8 ovarian
[55] = tested on: CCRF-CEM leukemia
[56] = tested on: MOLT-4 leukemia
[57] = tested on: IGROV1 ovarian
[58] = tested on: NCI-H226 lung
[59] = tested on: OVCAR-4 ovarian

Measured: TGI

CCCCCCCCCCc1c2nc(c(CCCCCCCCCC)c3ccc([nH]3)c(CCCCCCCCCC)c3ccc([nH]3)c(CCCCCCCCCC)c3nc1C=C3)C=C2
> 100 µM: all assays above
